Active and inactive are the calls of the source. The rule behind the calls is not given here.
Assays:
HepG2 [1] = test: Antiproliferative activity against human HepG2 cells assessed as cell growth inhibition measured after 72 hrs by SRB assay; format: functional, cell-based; details: HepG2, 72 h
A549 [2] = test: Antiproliferative activity against human A549 cells assessed as cell growth inhibition measured after 72 hrs by SRB assay; format: functional, cell-based; details: A549, 72 h
A549 [3] = test: Antiproliferative activity against human A549 cells assessed as inhibition of cell growth at 100 microM measured after 72 hrs by SRB assay; format: functional
MCF7 [4] = test: Antiproliferative activity against human MCF-7 cells assessed as cell growth inhibition measured after 72 hrs by SRB assay; format: functional, cell-based; details: MCF7, 72 h
MCF7 [5] = test: Antiproliferative activity against human MCF-7 cells assessed as inhibition of cell growth at 100 microM measured after 72 hrs by SRB assay; format: functional
WI-38 = test: Cytotoxicity against human WI-38 cells assessed as reduction in cell viability after 72 hrs by SRB assay; format: cell-based; details: WI-38, 72 h
HepG2 [6] = test: Antiproliferative activity against human HepG2 cells assessed as inhibition of cell growth at 100 microM measured after 72 hrs by SRB assay; format: functional
[7] = target: T1, Prostaglandin G/H synthase 1 (Ovis aries, UniProt P05979); test: Inhibition of ovine COX1 by colorimetric analysis
T1 sequence (P05979 whole entry): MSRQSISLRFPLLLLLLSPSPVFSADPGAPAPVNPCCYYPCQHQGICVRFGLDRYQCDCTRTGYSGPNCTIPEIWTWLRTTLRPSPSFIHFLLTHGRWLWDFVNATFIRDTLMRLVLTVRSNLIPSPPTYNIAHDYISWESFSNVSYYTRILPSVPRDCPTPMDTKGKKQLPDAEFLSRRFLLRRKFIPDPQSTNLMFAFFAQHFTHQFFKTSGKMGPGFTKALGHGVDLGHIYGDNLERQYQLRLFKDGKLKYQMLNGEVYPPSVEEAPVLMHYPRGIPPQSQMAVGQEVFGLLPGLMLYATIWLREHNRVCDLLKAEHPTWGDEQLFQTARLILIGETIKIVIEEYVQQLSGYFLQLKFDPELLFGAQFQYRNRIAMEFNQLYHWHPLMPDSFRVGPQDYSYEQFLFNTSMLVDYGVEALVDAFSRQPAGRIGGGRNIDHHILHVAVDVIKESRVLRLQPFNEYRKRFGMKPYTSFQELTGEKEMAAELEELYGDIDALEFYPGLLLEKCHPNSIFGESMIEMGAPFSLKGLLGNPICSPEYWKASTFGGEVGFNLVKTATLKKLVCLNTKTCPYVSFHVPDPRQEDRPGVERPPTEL

[8] = Inhibition of soya bean 15-LOX; set-up: species or system Glycine max
Carbonic anhydrase 2 = Carbonic anhydrase 2 (Homo sapiens, UniProt P00918); test: Inhibition of human CA2 by stopped-flow carbon dioxide hydration assay
Carbonic anhydrase 1 = Carbonic anhydrase 1 (Homo sapiens, UniProt P00915); test: Inhibition of human CA1 by stopped-flow carbon dioxide hydration assay
Carbonic anhydrase 12 = Carbonic anhydrase 12 (Homo sapiens, UniProt O43570); test: Inhibition of human CA12 by stopped-flow carbon dioxide hydration assay
Carbonic anhydrase 9 = Carbonic anhydrase 9 (Homo sapiens, UniProt Q16790); test: Inhibition of human CA9 by stopped-flow carbon dioxide hydration assay
HT-29 = test: Cytotoxicity against human HT-29 cells assessed as reduction in cell viability incubated for 24 hrs by MTS assay; format: functional, cell-based; details: HT-29, 24 h
A549 [9] = test: Induction of apoptosis in human A549 cells assessed as fold change in Bcl2 expression at IC50 by ELISA relative to control; format: functional
A549 [10] = test: Induction of apoptosis in human A549 cells assessed as Bax expression at IC50 by ELISA (reference value: 42.16 +/-6.2 pg/ml); format: functional
A549 [11] = test: Induction of apoptosis in human A549 cells assessed as caspase-9 expression at IC50 by ELISA (reference value: […] +/- […] ng/ml); format: functional
A549 [12] = test: Induction of apoptosis in human A549 cells assessed as early apoptotic cells at IC50 measured after 24 hrs by annexin V-FITC staining based flow cytometry (reference value: 0.63%); format: functional
A549 [13] = test: Induction of cell cycle arrest in human A549 cells assessed as accumulation at G2/M phase at IC50 measured after 24 hrs by propidium iodide/RNase staining based flow cytometry (reference value: 9.86%); format: functional
A549 [14] = test: Induction of apoptosis in human A549 cells assessed as fold change in Bax expression at IC50 by ELISA relative to control; format: functional
A549 [15] = test: Induction of apoptosis in human A549 cells assessed as total apoptotic cells at IC50 measured after 24 hrs by Annexin V-FITC/propidium iodide staining based flow cytometry (reference value: 0.92%); format: functional
A549 [16] = test: Induction of cell cycle arrest in human A549 cells assessed as accumulation at pre-G1 phase at IC50 measured after 24 hrs by propidium iodide/RNase staining based flow cytometry (reference value: 1.93%); format: functional
A549 [17] = test: Induction of apoptosis in human A549 cells assessed as Bcl2 expression at IC50 by ELISA (reference value: 9.04 +/-0.1 ng/ml); format: functional
A549 [18] = test: Induction of apoptosis in human A549 cells assessed as late apoptotic cells at IC50 measured after 24 hrs by annexin V-FITC staining based flow cytometry (reference value: […]); format: functional
A549 [19] = test: Induction of apoptosis in human A549 cells assessed as fold change in caspase-9 expression at IC50 by ELISA relative to control; format: functional
A549 [20] = test: Induction of cell cycle arrest in human A549 cells assessed as accumulation at G0/G1 phase at IC50 measured after 24 hrs by propidium iodide/RNase staining based flow cytometry (reference value: 58.26%); format: functional
A549 [21] = test: Induction of cell cycle arrest in human A549 cells assessed as accumulation at S phase at IC50 measured after 24 hrs by propidium iodide/RNase staining based flow cytometry (reference value: 31.88%); format: functional
A549 [22] = test: Induction of apoptosis in human A549 cells assessed as necrotic cells at IC50 measured after 24 hrs by annexin V-FITC staining based flow cytometry (reference value: 1.01%); format: functional
THP-1 = test: Cytotoxicity against PMA/LPS-challenged human THP1 cells assessed as reduction in cell viability incubated for 24 hrs by MTS assay; format: functional, cell-based; details: THP-1, 24 h

Chain of Carbonic anhydrase 1 (P00915 whole entry): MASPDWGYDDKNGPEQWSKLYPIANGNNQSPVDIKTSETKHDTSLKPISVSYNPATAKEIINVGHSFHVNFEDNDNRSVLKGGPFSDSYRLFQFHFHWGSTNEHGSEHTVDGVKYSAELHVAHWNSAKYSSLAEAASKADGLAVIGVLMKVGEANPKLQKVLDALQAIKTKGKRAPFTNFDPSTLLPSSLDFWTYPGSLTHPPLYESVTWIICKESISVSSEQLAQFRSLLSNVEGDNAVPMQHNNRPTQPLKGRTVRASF
Chain of Carbonic anhydrase 12 (O43570 whole entry): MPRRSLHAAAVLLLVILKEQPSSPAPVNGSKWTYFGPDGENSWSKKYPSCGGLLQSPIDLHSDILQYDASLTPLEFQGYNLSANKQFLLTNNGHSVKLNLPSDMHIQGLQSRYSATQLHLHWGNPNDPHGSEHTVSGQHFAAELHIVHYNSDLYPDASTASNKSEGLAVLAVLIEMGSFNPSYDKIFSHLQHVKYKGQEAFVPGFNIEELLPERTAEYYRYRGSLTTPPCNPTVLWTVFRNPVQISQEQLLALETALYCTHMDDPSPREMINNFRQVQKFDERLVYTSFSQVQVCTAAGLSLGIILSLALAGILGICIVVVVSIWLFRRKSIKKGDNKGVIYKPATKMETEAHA

## Cc1ccc(-c2cc(C(F)(F)F)nn2-c2ccc(S(N)(=O)=O)cc2)cc1 [CELECOXIB]
HepG2 [1]
  IC50: 0.36 µM
A549 [2]
  IC50: 17.5 µM
A549 [3]
  inhibition at 100 µM: 86.2%
MCF7 [4]
  IC50: 2.56 µM
MCF7 [5]
  inhibition at 100 µM: 89.9%
WI-38
  IC50: 433 µM
HepG2 [6]
  inhibition at 100 µM: 77.9%

## C/C(=N\NC(N)=S)c1nnn(-c2ccc(Cl)cc2)c1C
[7]
  IC50: 7.9 µM
[8]
  IC50: 5.33 µM

## Cc1c(-c2nn(-c3ccccc3)cc2/C=N/O)nnn1-c1ccc(F)cc1
Carbonic anhydrase 2
  Ki: > 100 µM
[7]
  IC50: 10.9 µM
Carbonic anhydrase 1
  Ki: > 100 µM
HepG2 [1]
  IC50: 31.1 µM
A549 [2]
  IC50: 27 µM
Carbonic anhydrase 12
  Ki: > 100 µM
A549 [3]
  inhibition at 100 µM: 92.4%
MCF7 [4]
  IC50: 5.32 µM
MCF7 [5]
  inhibition at 100 µM: 98.2%
Carbonic anhydrase 9
  Ki: > 100 µM
[8]
  IC50: 1.98 µM
WI-38
  IC50: 393 µM
HepG2 [6]
  inhibition at 100 µM: 89%

## C/C(=N\Nc1nc(-c2ccc(Cl)cc2)cs1)c1nnn(-c2ccc(S(N)(=O)=O)cc2)c1C
HT-29
  IC50: 87.4 µM
Carbonic anhydrase 2
  Ki: 0.0141 µM
[7]
  IC50: 12.4 µM
Carbonic anhydrase 1
  Ki: 0.252 µM
HepG2 [1]
  IC50: 72.4 µM
A549 [9]
  fold change (FC): 0.51
A549 [2]
  IC50: 28.5 µM
A549 [10]
  Activity: 329.7 pg/mL
Carbonic anhydrase 12
  Ki: 0.0134 µM
A549 [11]
  Activity: 12.69 ng/mL
A549 [12]
  Activity: 9.15%
A549 [3]
  inhibition at 100 µM: 68.1%
A549 [13]
  Activity: 44.85%
A549 [14]
  fold change (FC): 7.82
MCF7 [5]
  inhibition at 100 µM: 37.2%
Carbonic anhydrase 9
  Ki: 7.89 µM
A549 [15]
  Activity: 28.74%
A549 [16]
  Activity: 31.22%
[8]
  IC50: 1.34 µM
A549 [17]
  Activity: 4.95 ng/mL
A549 [18]
  Activity: 19.59%
A549 [19]
  fold change (FC): 10.56
A549 [20]
  Activity: 31.61%
A549 [21]
  Activity: 23.54%
WI-38
  IC50: 388 µM
A549 [22]
  Activity: 2.48%
HepG2 [6]
  inhibition at 100 µM: 59%

## O=C(O)Cc1ccccc1Nc1c(Cl)cccc1Cl [DICLOFENAC SODIUM]
HT-29
  IC50: 137 µM
THP-1
  IC50: 201 µM

## C/C(=N\NC(N)=O)c1nnn(-c2ccc(S(N)(=O)=O)cc2)c1C
Carbonic anhydrase 2
  Ki: 0.0164 µM
[7]
  IC50: 5.9 µM
Carbonic anhydrase 1
  Ki: 0.213 µM
Carbonic anhydrase 12
  Ki: 0.0198 µM
A549 [3]
  inhibition at 100 µM: 18.2%
MCF7 [5]
  inhibition at 100 µM: 5.8%
Carbonic anhydrase 9
  Ki: 4.22 µM
[8]
  IC50: 4.74 µM
WI-38
  IC50: 365 µM
HepG2 [6]
  inhibition: inactive

## C/C(=N\Nc1nc(-c2ccc(Cl)cc2)cs1)c1nnn(-c2ccc(C(=O)O)cc2)c1C
[7]
  IC50: 10.9 µM
Carbonic anhydrase 1
  Ki: 0.551 µM
A549 [2]
  IC50: 73.1 µM
Carbonic anhydrase 12
  Ki: > 100 µM
A549 [3]
  inhibition at 100 µM: 67%
MCF7 [5]
  inhibition at 100 µM: 40.4%
Carbonic anhydrase 9
  Ki: > 100 µM
[8]
  IC50: 1.76 µM
WI-38
  IC50: 461 µM
HepG2 [6]
  inhibition at 100 µM: 1.41%

## CC(=O)c1nnn(-c2ccc(C(=O)O)cc2)c1C
[7]
  IC50: 6.4 µM
[8]
  IC50: 5.14 µM

## C/C(=N\Nc1nc(-c2ccc(Cl)cc2)cs1)c1nnn(-c2ccc(F)cc2)c1C
[7]
  IC50: 11.9 µM
A549 [3]
  inhibition at 100 µM: 11.9%
MCF7 [5]
  inhibition at 100 µM: 33.5%
[8]
  IC50: 1.83 µM
WI-38
  IC50: 414 µM
HepG2 [6]
  inhibition at 100 µM: 20.7%

## O=c1c(O)c(-c2ccc(O)c(O)c2)oc2cc(O)cc(O)c12 [QUERCETIN]
[8]
  IC50: 3.34 µM

## C/C(=N\NC(N)=S)c1nnn(-c2ccc(F)cc2)c1C
Carbonic anhydrase 2
  Ki: > 100 µM
[7]
  IC50: 9.6 µM
Carbonic anhydrase 1
  Ki: > 100 µM
Carbonic anhydrase 12
  Ki: > 100 µM
A549 [3]
  inhibition: inactive
MCF7 [5]
  inhibition at 100 µM: 6.52%
Carbonic anhydrase 9
  Ki: > 100 µM
[8]
  IC50: 2.42 µM
WI-38
  IC50: 406 µM
HepG2 [6]
  inhibition at 100 µM: 19.8%

## C/C(=N\NC(N)=O)c1nnn(-c2ccc(Cl)cc2)c1C
[7]
  IC50: 5.6 µM
[8]
  IC50: 6.84 µM

From ChEMBL document CHEMBL4765344, “Expanding the anticancer potential of 1,2,3-triazoles via simultaneously targeting Cyclooxygenase-2, 15-lipoxygenase and tumor-associated carbonic anhydrases” (Eur J Med Chem, 2020)
